In US4914110A, “Quinoline derivatives, their preparation and therapeutic compositions containing the same” (Societe de Conseils de Recherches et d'Applications …, priority 1988, dated 1990):
Converted amounts (≈) assume the structure as drawn.

Legend:
[1] = tested on: Shigella boydii NCTC 9328; experiment: bactericidal activity by serial dilution in Brain Heart Infusion Broth (MIC and MMC), S.b.; assay type: cell-based; settings: 24 hours; for MIC: NCTC9328, 37° C., read-out: Minimal Inhibitory Concentration (MIC); for MBC: NCTC9328, sub-culture on Tryptone Soy Agar, 37° C., read-out: Minimal Microbiocidal Concentration (MMC)
Procedure: (§1) (A) The bactericidal activity of the compounds of the invention has been determined on various microorganisms, as hereinafter described.
(§2) Serial dilutions of the test and reference compounds are prepared in Brain Heart Infusion Broth (Oxoid CM225) in two-fold steps from 1000 μg/ml down to 0.5 μg/ml.
(§3) The test organisms are cultured on Tryptone Soy Agar (TSA, Oxoid CM131) and checked for viability and purity. Standardized inocula are then ppepared by inoculating slopes of TSA and incubating at 37° C. for 24 hours. The resultant bacterial growth is then removed by the addition of sterile physiological saline and shaking with glass beads. The suspensions of organisms are then standardized to give 50% transmission at […] on an SP600 Spectrophotometer. Calibration curves show this to yield approximately 10^8 colony forming units per ml.
(§4) 0.1 ml aliquots of these suspensions are then used to inoculate each of the prepared serial dilutions of the compounds in Brain Heart Infusion Broth.
(§5) The sets of dilutions are incubated at 37° C. for 24 hours and then inspected for the presence or absence of growth as shown by turbidity of the medium. The lowest concentration showing no growth of the test organism is recorded as the Minimal Inhibitory Concentration (MIC) of the compound for that organism.
(§6) Each of the tubes showing no growth are then sub-cultured onto plates of Tryptone Soy Agar and incubated at 37° C. for 24 hours. The plates are then inspected for the presence or absence of growth at the inoculation points. […] MIC and MMC are expressed in μg/ml.
(§7) The results are presented in the following table, in comparison with those for two reference compounds, nitrofuroxazide and pipemidic acid. The abreviations used in the table have the following meanings:
S.b. Shigella boydii NCTC 9328

[2] = tested on: Proteus mirabilis NCTC 8559; experiment: bactericidal activity by serial dilution in Brain Heart Infusion Broth (MIC and MMC), P.m.; assay type: cell-based; settings: 24 hours; for MIC: NCTC8559, 37° C., read-out: Minimal Inhibitory Concentration (MIC); for MBC: NCTC8559, sub-culture on Tryptone Soy Agar, 37° C., read-out: Minimal Microbiocidal Concentration (MMC)
Procedure: as §1, §2, §3, §4, §5, §6
(§8) The results are presented in the following table, in comparison with those for two reference compounds, nitrofuroxazide and pipemidic acid. The abreviations used in the table have the following meanings: […]

[3] = tested on: Salmonella enteritidis NCTC 6676; experiment: bactericidal activity by serial dilution in Brain Heart Infusion Broth (MIC and MMC), S.e.; assay type: cell-based; settings: Salmonella enterica, 37° C., 24 hours; for MIC: read-out: Minimal Inhibitory Concentration (MIC); for MBC: sub-culture on Tryptone Soy Agar, read-out: Minimal Microbiocidal Concentration (MMC)
Procedure: as §1, §2, §3, §4, §5, §6, §7
S.e. Salmonella enteritidis

[4] = tested on: Streptococcus pyogenes NCTC 8198; experiment: bactericidal activity by serial dilution in Brain Heart Infusion Broth (MIC and MMC), S.p.; assay type: cell-based; settings: 24 hours; for MIC: NCTC8198, 37° C., read-out: Minimal Inhibitory Concentration (MIC); for MBC: NCTC8198, sub-culture on Tryptone Soy Agar, 37° C., read-out: Minimal Microbiocidal Concentration (MMC)
Procedure: as §1, §2, §3, §4, §5, §6, §7
S.p. Streptococcus pyogenes

[5] = solubility in water; assay type: physicochemical
[6] = tested on: Staphylococcus aureus ATCC 6538; experiment: bactericidal activity by serial dilution in Brain Heart Infusion Broth (MIC and MMC), S.a.; assay type: cell-based; settings: 24 hours; for MIC: ATCC6538, 37° C., read-out: Minimal Inhibitory Concentration (MIC); for MBC: ATCC6538, sub-culture on Tryptone Soy Agar, 37° C., read-out: Minimal Microbiocidal Concentration (MMC)
Procedure: as §1, §2, §3, §4, §5, §6, §7
S.a. Staphylococcus aureus

[7] = tested on: Pseudomonas aeruginosa ATCC 9027; experiment: bactericidal activity by serial dilution in Brain Heart Infusion Broth (MIC and MMC), P.a.; assay type: cell-based; settings: 24 hours; for MIC: ATCC9027, 37° C., read-out: Minimal Inhibitory Concentration (MIC); for MBC: ATCC9027, sub-culture on Tryptone Soy Agar, 37° C., read-out: Minimal Microbiocidal Concentration (MMC)
Procedure: as §1, §2, §3, §4, §5, §6, §7
P.a. Pseudomonas aeruginosa

[8] = tested on: Escherichia coli NCTC 8196; experiment: bactericidal activity by serial dilution in Brain Heart Infusion Broth (MIC and MMC), E.c.; assay type: cell-based; settings: 24 hours; for MIC: NCTC8196, 37° C., read-out: Minimal Inhibitory Concentration (MIC); for MBC: NCTC8196, sub-culture on Tryptone Soy Agar, 37° C., read-out: Minimal Microbiocidal Concentration (MMC)
Procedure: as §1, §2, §3, §4, §5, §6, §8

[9] = solubility in dimethylsulfoxide; assay type: physicochemical
[10] = tested on: Vibrio Cholerae, Vibrio parahemolyticus, Vibrio alginolyticus, Aeromonas hydrophila Sobria and Salmonella; experiment: bacteriostatic activity, preceding experiment (comparison within the series); assay type: cell-based; settings: compared with the compounds of examples 1 to 5
Procedure: (B) The bacteriostatic activity of the compounds of the invention has also been searched against microorganisms more particularly related with gastro-enteritis.
This experiment was conducted in Mueller-Hinton gelose with tested compounds dissolved in dimethylsulfoxide (control dimethylsulfoxide was provided) at increasing concentrations from 0.01 to 100 μg. The strains used were Vibrio Cholerae (3 strains respectively from Europe, Africa and Conth-East-Asia), Vibrio parahemolyticus, Vibrio alginolyticus, Aeromonas hydrophila Sobria and Salmonella. Minimum inhibitory concentration was found for the 7 compounds of the invention, between 0.5 and 1 μg for the Salmonella strain and between 0.1 and 0.5 μg for the other strains, which denotes a strong bacteriostatic activity.

Compound	MIC [1] [µg/mL]	MBC [1] [µg/mL]	MIC [2] [µg/mL]	MBC [2] [µg/mL]	MIC [3] [µg/mL]	MBC [3] [µg/mL]	MIC [4] [µg/mL]	MBC [4] [µg/mL]	solubility in water [5]	MIC [6] [µg/mL]	MBC [6] [µg/mL]	MIC [7] [µg/mL]	MBC [7] [µg/mL]	MIC [8] [µg/mL]	MBC [8] [µg/mL]	solubility in dimethylsulfoxide [9]	relative activity in preceding experiment [10]
CCn1cc(C(=O)O)c(=O)c2cc(F)cc(F)c21 [Example 1, 1,4-dihydro-3-carboxy-6,8-difluoro-1-ethyl-4-oxo-quinoline]	1 (≈ 3.95 µM)	1 (≈ 3.95 µM)	1 (≈ 3.95 µM)	2 (≈ 7.9 µM)	2 (≈ 7.9 µM)	4 (≈ 15.8 µM)	16 (≈ 63.2 µM)	32 (≈ 126 µM)	insoluble	32 (≈ 126 µM)	32 (≈ 126 µM)	32 (≈ 126 µM)	64 (≈ 253 µM)	8 (≈ 31.6 µM)	8 (≈ 31.6 µM)	soluble	
O=C(O)c1cn(CCF)c2c(F)cc(F)cc2c1=O [Example 2]	8 (≈ 29.5 µM)	16 (≈ 59 µM)	4 (≈ 14.7 µM)	8 (≈ 29.5 µM)	4 (≈ 14.7 µM)	8 (≈ 29.5 µM)	32 (≈ 118 µM)	32 (≈ 118 µM)	insoluble	4 (≈ 14.7 µM)	8 (≈ 29.5 µM)	8 (≈ 29.5 µM)	8 (≈ 29.5 µM)	32 (≈ 118 µM)	32 (≈ 118 µM)	insoluble	
O=C(O)c1cn(COCCO)c2c(F)cc(F)cc2c1=O [Example 3]	8 (≈ 26.7 µM)	8 (≈ 26.7 µM)	32 (≈ 107 µM)	32 (≈ 107 µM)	32 (≈ 107 µM)	32 (≈ 107 µM)	2 (≈ 6.68 µM)	4 (≈ 13.4 µM)	insoluble	4 (≈ 13.4 µM)	8 (≈ 26.7 µM)	8 (≈ 26.7 µM)	16 (≈ 53.5 µM)	4 (≈ 13.4 µM)	8 (≈ 26.7 µM)	soluble	
O=C(O)c1cn(CC2CC2)c2c(F)cc(F)cc2c1=O [Example 4]	32 (≈ 115 µM)	32 (≈ 115 µM)	1 (≈ 3.58 µM)	2 (≈ 7.16 µM)	2 (≈ 7.16 µM)	4 (≈ 14.3 µM)	4 (≈ 14.3 µM)	4 (≈ 14.3 µM)	insoluble	64 (≈ 229 µM)	64 (≈ 229 µM)	8 (≈ 28.6 µM)	16 (≈ 57.3 µM)	64 (≈ 229 µM)	64 (≈ 229 µM)	soluble	
O=C(O)c1cn(Cc2ccc([N+](=O)[O-])o2)c2c(F)cc(F)cc2c1=O [Example 5]	32 (≈ 91.4 µM)	32 (≈ 91.4 µM)	16 (≈ 45.7 µM)	32 (≈ 91.4 µM)	125 (≈ 357 µM)	125 (≈ 357 µM)	8 (≈ 22.8 µM)	32 (≈ 91.4 µM)	insoluble	16 (≈ 45.7 µM)	64 (≈ 183 µM)	2 (≈ 5.71 µM)	2 (≈ 5.71 µM)	64 (≈ 183 µM)	64 (≈ 183 µM)	soluble	
O=C(O)c1cn(CC2CCCCC2)c2c(F)cc(F)cc2c1=O [Example 6]	8 (≈ 24.9 µM)	8 (≈ 24.9 µM)	8 (≈ 24.9 µM)	8 (≈ 24.9 µM)	4 (≈ 12.4 µM)	4 (≈ 12.4 µM)	16 (≈ 49.8 µM)	16 (≈ 49.8 µM)	insoluble	8 (≈ 24.9 µM)	16 (≈ 49.8 µM)	4 (≈ 12.4 µM)	8 (≈ 24.9 µM)	64 (≈ 199 µM)	64 (≈ 199 µM)	insoluble	less active
O=C(O)c1cn(Cc2c(Cl)cccc2Cl)c2c(F)cc(F)cc2c1=O [Example 7]	16 (≈ 41.6 µM)	32 (≈ 83.3 µM)	2 (≈ 5.21 µM)	4 (≈ 10.4 µM)	2 (≈ 5.21 µM)	4 (≈ 10.4 µM)	32 (≈ 83.3 µM)	64 (≈ 167 µM)	insoluble	8 (≈ 20.8 µM)	8 (≈ 20.8 µM)	8 (≈ 20.8 µM)	8 (≈ 20.8 µM)	1 (≈ 2.6 µM)	2 (≈ 5.21 µM)	insoluble	less active
O=C(N/N=C/c1ccc([N+](=O)[O-])o1)c1ccc(O)cc1 [Nif., Nifuroxazide, reference compound]	8 (≈ 29.1 µM)	8 (≈ 29.1 µM)	500 (≈ 1820 µM)	500 (≈ 1820 µM)	500 (≈ 1820 µM)	500 (≈ 1820 µM)	1 (≈ 3.63 µM)	1 (≈ 3.63 µM)		8 (≈ 29.1 µM)	8 (≈ 29.1 µM)	500 (≈ 1820 µM)	500 (≈ 1820 µM)	4 (≈ 14.5 µM)	4 (≈ 14.5 µM)		
CCn1cc(C(=O)O)c(=O)c2cnc(N3CCNCC3)nc21 [Pip., Pipemidic acid, reference compound]	4 (≈ 13.2 µM)	4 (≈ 13.2 µM)	4 (≈ 13.2 µM)	8 (≈ 26.4 µM)	4 (≈ 13.2 µM)	8 (≈ 26.4 µM)	4 (≈ 13.2 µM)	125 (≈ 412 µM)		2 (≈ 6.59 µM)	250 (≈ 824 µM)	1 (≈ 3.3 µM)	16 (≈ 52.7 µM)	4 (≈ 13.2 µM)	4 (≈ 13.2 µM)		
